Experimental data: PubChem BioAssay (NCI)
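A five-concentration, 48-hour dose response in 96-well plates underlies each endpoint, interpolated linearly between surrounding concentrations. At the GI50, growth is halved. TGI marks complete inhibition of growth.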

Legend:
Experiment in all cases: inhibition of tumour cell growth, NCI panel, 48 h
HCT-15 colon = test system: HCT-15 colon
K-562 leukemia = test system: K-562 leukemia
HCT-116 colon = test system: HCT-116 colon
HCC-2998 colon = test system: HCC-2998 colon
ACHN renal = test system: ACHN renal
COLO 205 colon = test system: COLO 205 colon
SN12C renal = test system: SN12C renal
SK-MEL-5 melanoma = test system: SK-MEL-5 melanoma
UACC-62 melanoma = test system: UACC-62 melanoma
KM12 colon = test system: KM12 colon
SF-295 CNS = test system: SF-295 CNS
OVCAR-4 ovarian = test system: OVCAR-4 ovarian
PC-3 prostate = test system: PC-3 prostate
OVCAR-3 ovarian = test system: OVCAR-3 ovarian
SK-OV-3 ovarian = test system: SK-OV-3 ovarian
786-0 renal = test system: 786-0 renal
HOP-62 NSCLC = test system: HOP-62 NSCLC
SF-268 CNS = test system: SF-268 CNS
UACC-257 melanoma = test system: UACC-257 melanoma
BT-549 breast = test system: BT-549 breast
HL-60(TB) leukemia = test system: HL-60(TB) leukemia
MDA-MB-435 = test system: MDA-MB-435
HT29 colon = test system: HT29 colon
MCF7 breast = test system: MCF7 breast
SNB-75 CNS = test system: SNB-75 CNS
U251 CNS = test system: U251 CNS
RXF 393 renal = test system: RXF 393 renal
EKVX NSCLC = test system: EKVX NSCLC
DU-145 prostate = test system: DU-145 prostate
M14 melanoma = test system: M14 melanoma
HOP-92 NSCLC = test system: HOP-92 NSCLC
IGROV1 ovarian = test system: IGROV1 ovarian
MALME-3M melanoma = test system: MALME-3M melanoma
NCI-H460 lung = test system: NCI-H460 lung
TK-10 renal = test system: TK-10 renal
OVCAR-8 ovarian = test system: OVCAR-8 ovarian
T-47D breast = test system: T-47D breast
UO-31 renal = test system: UO-31 renal
NCI-H226 lung = test system: NCI-H226 lung
CAKI-1 renal = test system: CAKI-1 renal
SNB-19 CNS = test system: SNB-19 CNS
SW-620 colon = test system: SW-620 colon
NCI-H23 lung = test system: NCI-H23 lung
SF-539 CNS = test system: SF-539 CNS
A549 NSCLC = test system: A549 NSCLC
A498 renal = test system: A498 renal
SK-MEL-28 melanoma = test system: SK-MEL-28 melanoma
MOLT-4 leukemia = test system: MOLT-4 leukemia
LOX IMVI melanoma = test system: LOX IMVI melanoma
CCRF-CEM leukemia = test system: CCRF-CEM leukemia
NCI/ADR-RES ovarian = test system: NCI/ADR-RES ovarian
HS 578T breast = test system: HS 578T breast
RPMI-8226 leukemia = test system: RPMI-8226 leukemia
MDA-MB-231 breast = test system: MDA-MB-231 breast
SR leukemia = test system: SR leukemia
OVCAR-5 ovarian = test system: OVCAR-5 ovarian
NCI-H522 lung = test system: NCI-H522 lung

Question: Which results are given for CC(C)(C)c1ccc(OCCCCCCN2CCNCC2)cc1?
Answer: GI50 (HCT-15 colon): 3.04 µM; TGI (HCT-15 colon): 10 µM; GI50 (K-562 leukemia): 1.75 µM; TGI (K-562 leukemia): 4.48 µM; GI50 (HCT-116 colon): 3.18 µM; TGI (HCT-116 colon): 13.9 µM; GI50 (HCC-2998 colon): 2.38 µM; TGI (HCC-2998 colon): 4.62 µM; GI50 (ACHN renal): 5.01 µM; TGI (ACHN renal): 17.5 µM; GI50 (COLO 205 colon): 1.95 µM; TGI (COLO 205 colon): 4.09 µM; GI50 (SN12C renal): 11.7 µM; TGI (SN12C renal): 27.8 µM; GI50 (SK-MEL-5 melanoma): 1.87 µM; TGI (SK-MEL-5 melanoma): 3.49 µM; GI50 (UACC-62 melanoma): 2.33 µM; TGI (UACC-62 melanoma): 5.77 µM; GI50 (KM12 colon): 3.89 µM; TGI (KM12 colon): 13.8 µM; GI50 (SF-295 CNS): 8.82 µM; TGI (SF-295 CNS): 22.3 µM; GI50 (OVCAR-4 ovarian): 9.46 µM; TGI (OVCAR-4 ovarian): 23.9 µM; GI50 (PC-3 prostate): 8.28 µM; TGI (PC-3 prostate): 24.4 µM; GI50 (OVCAR-3 ovarian): 7.38 µM; TGI (OVCAR-3 ovarian): 20.8 µM; GI50 (SK-OV-3 ovarian): 10.9 µM; TGI (SK-OV-3 ovarian): 24.7 µM; GI50 (786-0 renal): 3.34 µM; TGI (786-0 renal): 11.6 µM; GI50 (HOP-62 NSCLC): 11 µM; TGI (HOP-62 NSCLC): 25.8 µM; GI50 (SF-268 CNS): 10.7 µM; TGI (SF-268 CNS): 24.4 µM; GI50 (UACC-257 melanoma): 10.5 µM; TGI (UACC-257 melanoma): 22.9 µM; GI50 (BT-549 breast): 10.5 µM; TGI (BT-549 breast): 27.1 µM; GI50 (HL-60(TB) leukemia): 1.98 µM; TGI (HL-60(TB) leukemia): 4.32 µM; GI50 (MDA-MB-435): 3.17 µM; TGI (MDA-MB-435): 11.9 µM; GI50 (HT29 colon): 2.64 µM; TGI (HT29 colon): 10.5 µM; GI50 (MCF7 breast): 3.03 µM; TGI (MCF7 breast): 10.3 µM; GI50 (SNB-75 CNS): 3.12 µM; TGI (SNB-75 CNS): 16 µM; GI50 (U251 CNS): 3.32 µM; TGI (U251 CNS): 13.2 µM; GI50 (RXF 393 renal): 1.91 µM; TGI (RXF 393 renal): 4.12 µM; GI50 (EKVX NSCLC): 10.2 µM; TGI (EKVX NSCLC): 24.2 µM; GI50 (DU-145 prostate): 10.5 µM; TGI (DU-145 prostate): 23.2 µM; GI50 (M14 melanoma): 3.22 µM; TGI (M14 melanoma): 13.5 µM; GI50 (HOP-92 NSCLC): 3.31 µM; TGI (HOP-92 NSCLC): 19.7 µM; GI50 (IGROV1 ovarian): 6.34 µM; TGI (IGROV1 ovarian): 22.6 µM; GI50 (MALME-3M melanoma): 3.27 µM; TGI (MALME-3M melanoma): 13.1 µM; GI50 (NCI-H460 lung): 3.21 µM; TGI (NCI-H460 lung): 11.4 µM; GI50 (TK-10 renal): 13.9 µM; TGI (TK-10 renal): 27.8 µM; GI50 (OVCAR-8 ovarian): 14.6 µM; TGI (OVCAR-8 ovarian): 33.5 µM; GI50 (T-47D breast): 2.22 µM; TGI (T-47D breast): 5.94 µM; GI50 (UO-31 renal): 12.2 µM; TGI (UO-31 renal): 25.6 µM; GI50 (NCI-H226 lung): 15.3 µM; TGI (NCI-H226 lung): 34.3 µM; GI50 (CAKI-1 renal): 4.72 µM; TGI (CAKI-1 renal): 17 µM; GI50 (SNB-19 CNS): 8.06 µM; TGI (SNB-19 CNS): 24.4 µM; GI50 (SW-620 colon): 2.14 µM; TGI (SW-620 colon): 5.19 µM; GI50 (NCI-H23 lung): 7.59 µM; TGI (NCI-H23 lung): 23 µM; GI50 (SF-539 CNS): 5.98 µM; TGI (SF-539 CNS): 20.6 µM; GI50 (A549 NSCLC): 6.95 µM; TGI (A549 NSCLC): 21.2 µM; GI50 (A498 renal): 9.44 µM; TGI (A498 renal): 23.1 µM; GI50 (SK-MEL-28 melanoma): 3.23 µM; TGI (SK-MEL-28 melanoma): 11.4 µM; GI50 (MOLT-4 leukemia): 1.82 µM; TGI (MOLT-4 leukemia): 5.07 µM; GI50 (LOX IMVI melanoma): 1.83 µM; TGI (LOX IMVI melanoma): 3.66 µM; GI50 (CCRF-CEM leukemia): 2.88 µM; TGI (CCRF-CEM leukemia): 12 µM; GI50 (NCI/ADR-RES ovarian): 14.3 µM; TGI (NCI/ADR-RES ovarian): 33.7 µM; GI50 (HS 578T breast): 6.15 µM; TGI (HS 578T breast): 25.1 µM; GI50 (RPMI-8226 leukemia): 2.5 µM; TGI (RPMI-8226 leukemia): 6.46 µM; GI50 (MDA-MB-231 breast): 2.53 µM; TGI (MDA-MB-231 breast): 7.97 µM; GI50 (SR leukemia): 2.04 µM; TGI (SR leukemia): 5.85 µM; GI50 (OVCAR-5 ovarian): 13.7 µM; TGI (OVCAR-5 ovarian): 29.4 µM; GI50 (NCI-H522 lung): 13.6 µM; TGI (NCI-H522 lung): 31.7 µM
